Assay results reported in patent US11213535B2, “Composition containing phytic acid, magnesium and polyphenols for the treatment or prevention of renal lithiasis” (UNIVERSITAT DE LES ILLES BALEARS, priority 2014, dated 2022).

Experiment: induction time of calcium oxalate crystallization in synthetic urine
Settings: 200 mg/L calcium and 50 mg/L oxalate
Description: Thus, when there is neither magnesium nor phytate, the calcium oxalate takes 1 minute to crystallize. This time increases up to 10 minutes when […] magnesium is added and, in turn, it increases up to 44 minutes if, in addition to the 10 mg/L magnesium, 1 mg/L phytate is added.

SMILES | induction times of crystallization t (0.5 mg/L phytate, 0 mg/L Mg) [min] | induction times of crystallization t (0.75 mg/L phytate, 0 mg/L Mg) [min] | induction times of crystallization t (1 mg/L phytate, 0 mg/L Mg) [min] | induction times of crystallization t (0 mg/L phytate, 25 mg/L Mg) [min] | induction times of crystallization t (0 mg/L phytate, 75 mg/L Mg) [min] | induction times of crystallization t (0 mg/L phytate, 100 mg/L Mg) [min] | time calcium oxalate takes to crystallize (induction time) (100 mg/L magnesium, no phytate) [min]
O=P(O)(O)O[C@H]1[C@H](OP(=O)(O)O)[C@@H](OP(=O)(O)O)[C@H](OP(=O)(O)O)[C@@H](OP(=O)(O)O)[C@H]1OP(=O)(O)O [phytate, myo-inositol-hexaphosphate] | 3 | 4 | 6.5 | – | – | – | –
[Mg+2] [Mg, magnesium] | – | – | – | 1.5 | 6 | 10 | 10
